Each structure is given as a SMILES string. Values joined by “and” are separate entries in the source; they are usually repeats but may differ in a detail not shown here. Identical values can stand only once. Where only a bound is given, the exact number is not on record here.

The target of the test is farnesyl protein transferase (Homo sapiens, UniProt P49354+P49356). The experiment in a line: FPT IC50, inhibition of farnesyl protein transferase, in vitro enzyme assay (procedure of WO 95/10516). In kind it is biochemical. The settings on record: several values in a cell are repeat determinations, read-out: FPT C50. The protocol:
FPT IC50 (inhibition of farnesyl protein transferase, in vitro enzyme assay). and COS Cell IC50 (Cell-Based Assay) were determined following the assay procedures described in WO 95/10516, published April 20, 1995. GGPT IC50 (inhibition of geranylgeranyl protein transferase, in vitro enzyme assay), Cell Mat Assay, and anti-tumor activity (in vivo anti-tumor studies) could be determined by the assay procedures described in WO 95/10516. The disclosure of WO 95/10516 is incorporated herein by reference thereto.
Take `O=C(NCCCN1CCCC1=O)C1CN(C2c3ncc(Br)cc3CCc3cc(Cl)cc(Br)c32)CCN1` (stereo not drawn) [Compound 216, 4-(3,10-DIBROMO-8-CHLORO-6,11-DIHYDRO-5H-BENZO[5,6] CYCLOHEPTA[1,2-b]PYRIDIN-11-YL)-N-[3-(2-OXO-1-PYRROLIDINYL)PROPYL]-2-PIPERAZINECARBOXAMIDE]: the IC50 is over 150 nM. As for `O=C(NCCc1c[nH]cn1)C1CN(C2c3ccc(Cl)cc3CCc3cc(Br)cnc32)CCN1C(=O)NC1CCCCC1` (stereo not drawn) [Compound 227], the figure is 7.2 nM and 6.7 nM. The figure for `COCC(=O)N1CCN(C2c3ncc(Br)cc3CCc3cc(Cl)cc(Br)c32)CC1C(=O)NCCCN1CCCC1=O` (stereo not drawn) [Compound 218] is 48 nM.
